Results taken from patent US20170281727A1, “THERAPEUTIC OR PROPHYLACTIC AGENT FOR ITCHING SKIN DISEASES” (Toray Industries, Inc., priority 2014, published 2017).
“Also recorded” adds a separate entry of the source.

Assays:
Format in all cases: cell-based, human
Sema3A [1] = assay: mRNA expression analysis of Sema3A by real-time PCR in NHEKs; conditions: LL-37 20 μg/ml, 48 hours after stimulation, vs control without LL-37
Protocol: (§1) Normal human epidermal keratinocytes (NHEKs) were cultured according to a protocol provided by Lonza. NHEKs were cultured in a 12-well tissue culture plate and, in the growth phase (80% confluence), LL-37 (20 μg/ml) was added alone, or LL-37 (20 μg/ml) and the peptide SLIGRL (SEQ ID NO:2, 100 μM) were added, to the cells. The peptide SLIGRL is a peptide frequently used as a PAR2 agonist, and it is known that activation of PAR2 induces promotion of expression of TSLP in keratinocytes (Wilson et al, Cell, 2013: 155, 285-295). Total RNA was extracted 48 hours after the addition of LL-37, and mRNA expression analysis was carried out by real-time PCR. The culture supernatant was collected, and subjected to analysis of the protein expression level by ELISA. • (3) Analysis of Expression of mRNA of Each Gene
(§2) The transcription level of each gene was analyzed by quantitative real-time PCR. […] According to the manufacturer's instructions, quantitative real-time PCR was carried out using an Applied Biosystems 7900HT Fast Real-time PCR system (Applied Biosystems) with SYBR Premix Ex Taq (Takara). […] The amount of each mRNA was normalized against the amount of mRNA of RPS18, and finally expressed as the ratio to the mRNA in an untreated control.

NGF = assay: mRNA expression analysis of NGF by real-time PCR in NHEKs; conditions: LL-37 20 μg/ml, 48 hours after stimulation, vs control without LL-37
Protocol: as §1, §2

KAL1 = assay: mRNA expression analysis of KAL1 by real-time PCR in NHEKs; conditions: LL-37 20 μg/ml, 48 hours after stimulation, vs control without LL-37
Protocol: as §1, §2

Artemin = assay: mRNA expression analysis of Artemin by real-time PCR in NHEKs; conditions: LL-37 20 μg/ml, 48 hours after stimulation, vs control without LL-37
Protocol: as §1, §2

hBD-1 = assay: mRNA expression analysis of hBD-1 by real-time PCR in NHEKs; conditions: LL-37 20 μg/ml, 48 hours after stimulation, vs control without LL-37
Protocol: as §1, §2

hBD-2 = assay: mRNA expression analysis of hBD-2 by real-time PCR in NHEKs; conditions: LL-37 20 μg/ml, 48 hours after stimulation, vs control without LL-37
Protocol: as §1, §2

TSLP = assay: mRNA expression analysis of TSLP by real-time PCR in NHEKs
Protocol: as §1, §2

Sema3A [2] = assay: Sema3A protein in NHEK culture supernatant by ELISA; conditions: NHEKs, LL-37 20 μg/ml, 48 hours after stimulation, vs control without LL-37
Protocol: as §1
The expression level of each protein was analyzed by ELISA. The amount of Sema3A in the culture supernatant was measured using an Enzyme-linked Immunosorbent Assay Kit (USCN Life Science) according to the manufacturer's instructions.

LL-37: human cathelicidin antimicrobial peptide, LLGDFFRKSKEKIGKEFKRIVQRIKDFLRNLVPRTES, SEQ ID NO:1 (listed as Homo sapiens)
mRNA expression of Sema3A (Sema3A [1]): promoted; also recorded: increases | mRNA expression of NGF (NGF): suppressed; also recorded: decreases | mRNA expression of KAL1 (KAL1): promoted; also recorded: increases | mRNA expression of Artemin (Artemin): suppressed; also recorded: decreases | mRNA expression of hBD-1 (hBD-1): Promotion; also recorded: increases | mRNA expression of hBD-2 (hBD-2): Promotion; also recorded: increases | mRNA expression of TSLP (TSLP; LL-37 20 μg/ml alone, 48 hours after stimulation, vs control without LL-37): Suppression; also recorded: decreases | mRNA expression of TSLP induced by SLIGRL (TSLP; LL-37 20 μg/ml plus SLIGRL 100 μM (PAR2 agonist), 48 hours): suppression; also recorded: decreased | amount of Sema3A protein in the culture supernatant (Sema3A [2]): increase
